One assay concerns the target T1, hPTPRG (Homo sapiens, UniProt P23470).
T1 construct: The ICRs of PTPRG, PTPRS, and PTPRB and the catalytic domains of PTPN1 and PTPN6; GST (N); made in house; host or cells: Escherichia coli BL21
In words: In vitro PTPase assay (DiFMUP), PTPRG. Particulars: 60-min preincubation. Type of assay: biochemical. The method, then: (§1) Figure 4 NAZ2329, an allosteric inhibitor of R5 RPTP subfamily members. (A) Structure of NAZ2329. (B) Effect of preincubation of NAZ2329 on its inhibitory activity against PTPRZ. Recombinant human PTPRZ1 enzyme (the whole intracellular region) was premixed with NAZ2329 for the indicated times and followed by addition of a fluorogenic DiFMUP (non-specific PTP substrate, 6,8-difluoro-4-methylumbiliferyl phosphate) to measure PTP inhibitory activity. (C) Time dependence. The PTPRZ1 enzyme was added to the inhibitor–substrate mixture, and the inhibitory activity was determined at each time point relative to the vehicle control. (D) Reversibility of inhibition. […] The mixture was then 20-fold diluted, and recovered PTP activity was expressed as the relative activity compared with the vehicle-treated enzyme. […] PTPRZ1 enzymes were preincubated with NAZ2329 for 60 min, and the PTP activity was measured using DiFMUP. […]
(§2) Recombinant proteins corresponding to the entire intracellular regions (ICRs) of PTPRZ1, PTPRA, and PTPRM were expressed using a baculovirus-silkworm expression system, and purified as described. The ICRs of PTPRG, PTPRS, and PTPRB and the catalytic domains of PTPN1 and PTPN6 were expressed as glutathione-S-transferase (GST) fusion proteins from each pGEX plasmid in Escherichia coli strain BL21 (ref. [6]). […]

In the next assay the target is T2, hPTPN1 (Homo sapiens, UniProt P18031).
T2 construct: the catalytic domains of PTPN1 and PTPN6 were expressed as glutathione-S-transferase (GST) fusion proteins; GST (N); made in house; host or cells: Escherichia coli BL21
T2 sequence (P18031 3-277 limits assumed): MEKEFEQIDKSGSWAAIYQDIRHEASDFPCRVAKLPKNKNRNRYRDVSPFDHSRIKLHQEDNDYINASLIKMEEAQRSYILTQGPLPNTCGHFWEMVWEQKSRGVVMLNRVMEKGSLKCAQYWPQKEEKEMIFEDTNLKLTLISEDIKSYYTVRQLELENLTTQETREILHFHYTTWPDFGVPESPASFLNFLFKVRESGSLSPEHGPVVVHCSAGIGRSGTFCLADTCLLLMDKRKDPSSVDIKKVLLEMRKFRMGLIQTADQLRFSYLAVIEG
In words: In vitro PTPase assay (DiFMUP), PTPN1. Particulars: 60-min preincubation. Type of assay: biochemical. The method, then:
as §1, §2

The subject of the next assay is human U251 cells. The assay is described as follows: Cellular effects in U251 cells. Type of assay: cell-based. Conditions: proliferation, migration, SOX2 (Supplementary Fig. S4). The method, then: This assay was performed as described previously. Briefly, cells were preincubated with compounds for 30 min, and then transferred onto a laminin-coated transwell insert in which the lower chambers contained epidermal growth factor (EGF, #E9644, Sigma-Aldrich). Cells were allowed to migrate for 3 h, and the number of cells that migrated to the lower surface was counted under a conventional fluorescence microscope.
Cells (3 × 10^4 cells) were inoculated into a 24-well plastic tissue culture plate with 500 µl of DMEM supplemented with 2% FBS and the indicated compounds for 48 h. Cells were harvested by trypsinization and then manually counted with a hemacytometer.
Cells were inoculated at 5 × 10^3 cells per 96-well uncoated polystyrene plate (# 9018, Corning) or 5 × 10^4 cells per 35-mm plastic petri dish (#351008, Corning), and cultured in a serum-free medium containing DMEM/F12 with 1x B27 supplement (#17504044, Thermo Fisher Scientific), EGF (20 ng/ml), and basic fibroblast growth factor (bFGF, 20 ng/ml, #064-05381, Wako pure chemical). After a 7-day culture, cells were fixed with 10% neutral formalin and pictured under a conventional microscope. The number of spheroids of approximately 70 µm in diameter were counted manually using Adobe Photoshop CS6 (Adobe).

T1 sequence (P23470 763-1445 limits assumed): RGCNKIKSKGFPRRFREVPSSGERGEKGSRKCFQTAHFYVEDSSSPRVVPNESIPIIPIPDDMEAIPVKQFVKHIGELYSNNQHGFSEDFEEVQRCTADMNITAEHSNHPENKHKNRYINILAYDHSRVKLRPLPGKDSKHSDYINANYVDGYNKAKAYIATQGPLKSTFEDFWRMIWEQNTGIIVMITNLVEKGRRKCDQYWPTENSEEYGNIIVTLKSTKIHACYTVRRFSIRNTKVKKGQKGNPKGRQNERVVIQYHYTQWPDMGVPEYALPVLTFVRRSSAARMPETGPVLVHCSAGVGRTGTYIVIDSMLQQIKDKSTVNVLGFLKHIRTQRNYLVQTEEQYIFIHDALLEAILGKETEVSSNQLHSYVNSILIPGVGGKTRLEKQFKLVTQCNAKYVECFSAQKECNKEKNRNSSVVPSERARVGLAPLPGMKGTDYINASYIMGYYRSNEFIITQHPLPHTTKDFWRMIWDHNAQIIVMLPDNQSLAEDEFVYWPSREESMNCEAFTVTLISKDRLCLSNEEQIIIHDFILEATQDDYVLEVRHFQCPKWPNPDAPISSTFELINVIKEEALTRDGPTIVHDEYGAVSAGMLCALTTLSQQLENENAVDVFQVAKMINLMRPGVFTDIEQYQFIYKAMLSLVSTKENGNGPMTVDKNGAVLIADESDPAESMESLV

Take `CCOc1ccc(C(F)(F)F)cc1CSc1ccsc1C(=O)NS(=O)(=O)c1ccccc1` [NAZ2329]: the IC50 (usually the concentration that gives 50% inhibition) turned out to be 4.8 µM against hPTPRG and 14.5 µM on hPTPN1. In the assay with human U251 cells, the “cellular effects in U251 cells compared with C6 cells” value is “exerted similar effects”.

These data come from paper PMC5514153, “Targeting PTPRZ inhibits stem cell-like properties and tumorigenicity in glioblastoma cells” (Scientific Reports, 2017).
